According to the CheMixHub viscosity set:

Test: xn = mol fraction of the nth substance listed

CCCCCCCO + Cc1ccccc1
viscosity [mPa·s], 101 kPa
Conditions | 298.15 K | 308.15 K
x2 = 0.0525 | 4.969 | 3.846
x2 = 0.1014 | 4.357 | 3.429
x2 = 0.1518 | 3.776 | 3.068
x2 = 0.1859 | 3.412 | 2.862
x2 = 0.2489 | 2.873 | 2.456
x2 = 0.3011 | 2.473 | 2.202
x2 = 0.3504 | 2.153 | 1.942
x2 = 0.4006 | 1.843 | 1.719
x2 = 0.4494 | 1.63 | 1.542
x2 = 0.5003 | 1.435 | 1.357
x2 = 0.5486 | 1.245 | 1.223
x2 = 0.5903 | 1.12 | 1.094
x2 = 0.6493 | 0.965 | 0.967
x2 = 0.7011 | 0.893 | 0.874
x2 = 0.752 | 0.768 | 0.766
x2 = 0.8041 | 0.676 | 0.664
x2 = 0.8495 | 0.645 | 0.624
x2 = 0.9009 | 0.6 | 0.575
x2 = 0.9487 | 0.572 | 0.527

[Cl-].[Cl-].[Sr+2] + O
Conditions | viscosity [mPa·s]
293.15 K, 100 kPa, x1 = 0.0048 | 1.08
293.15 K, 100 kPa, x1 = 0.01 | 1.172
293.15 K, 100 kPa, x1 = 0.016 | 1.283
293.15 K, 100 kPa, x1 = 0.0302 | 1.607
293.15 K, 100 kPa, x1 = 0.0452 | 2.065
293.15 K, 101.3 kPa, x1 = 0.0009 | 1.018
293.15 K, 101.3 kPa, x1 = 0.0018 | 1.032
293.15 K, 101.3 kPa, x1 = 0.00893 | 1.146
293.15 K, 101.3 kPa, x1 = 0.0177 | 1.312
293.15 K, 101.3 kPa, x1 = 0.02631 | 1.515
293.15 K, 101.3 kPa, x1 = 0.03478 | 1.722
293.15 K, 101.3 kPa, x1 = 0.0431 | 1.994
298.15 K, 100 kPa, x1 = 0.0048 | 0.9628
298.15 K, 100 kPa, x1 = 0.01 | 1.048
298.15 K, 100 kPa, x1 = 0.016 | 1.152
298.15 K, 100 kPa, x1 = 0.0302 | 1.447
298.15 K, 100 kPa, x1 = 0.0452 | 1.862
298.15 K, 101.3 kPa, x1 = 0.0009 | 0.9055
298.15 K, 101.3 kPa, x1 = 0.0018 | 0.9188
298.15 K, 101.3 kPa, x1 = 0.00893 | 1.025
298.15 K, 101.3 kPa, x1 = 0.0177 | 1.179
298.15 K, 101.3 kPa, x1 = 0.02631 | 1.364
298.15 K, 101.3 kPa, x1 = 0.03478 | 1.552
298.15 K, 101.3 kPa, x1 = 0.0431 | 1.797
303.15 K, 101.3 kPa, x1 = 0.0009 | 0.8117
303.15 K, 101.3 kPa, x1 = 0.0018 | 0.8241
303.15 K, 101.3 kPa, x1 = 0.00893 | 0.9228
303.15 K, 101.3 kPa, x1 = 0.0177 | 1.065
303.15 K, 101.3 kPa, x1 = 0.02631 | 1.236
303.15 K, 101.3 kPa, x1 = 0.03478 | 1.408
303.15 K, 101.3 kPa, x1 = 0.0431 | 1.63
308.15 K, 101.3 kPa, x1 = 0.0009 | 0.7325
308.15 K, 101.3 kPa, x1 = 0.0018 | 0.7443
308.15 K, 101.3 kPa, x1 = 0.00893 | 0.8365
308.15 K, 101.3 kPa, x1 = 0.0177 | 0.9688
308.15 K, 101.3 kPa, x1 = 0.02631 | 1.127
308.15 K, 101.3 kPa, x1 = 0.03478 | 1.284
308.15 K, 101.3 kPa, x1 = 0.0431 | 1.487
313.2 K, 100 kPa, x1 = 0.0302 | 1.096
313.56 K, 100 kPa, x1 = 0.0048 | 0.7071
313.9 K, 100 kPa, x1 = 0.01 | 0.7701
314.54 K, 100 kPa, x1 = 0.0452 | 1.374
315.86 K, 100 kPa, x1 = 0.016 | 0.8261
318.15 K, 101.3 kPa, x1 = 0.0009 | 0.6082
318.15 K, 101.3 kPa, x1 = 0.0018 | 0.6186
318.15 K, 101.3 kPa, x1 = 0.00893 | 0.6997
318.15 K, 101.3 kPa, x1 = 0.0177 | 0.8151
318.15 K, 101.3 kPa, x1 = 0.02631 | 0.9514
318.15 K, 101.3 kPa, x1 = 0.03478 | 1.086
318.15 K, 101.3 kPa, x1 = 0.0431 | 1.258
